Measurements as given in paper PMC9516332 (Frontiers in Oncology, 2022).
Like-named read-outs stand apart in the source and are kept apart here.

Assays:
134 cancer cell lines = assay: Cell viability assay (ATPlite, 72 hours), IC50 on cancer cell line panel
AP-1060 (ETV6-NTRK3) = assay: Cell viability assay; conditions: read-out: IC50 in cell proliferation assay

For `COc1cc2ncnc(Nc3ccc(F)c(Cl)c3)c2cc1NC(=O)/C=C/CN1CCCCC1` [dacomitinib], the IC50 (134 cancer cell lines; Homo sapiens, MV4-11, read-out: IC50 in cell proliferation assay, MV4-11 cell line (FLT3 ITD)) was 0.23 µM, the IC50 (134 cancer cell lines; Homo sapiens, MeWo, read-out: IC50 in cell proliferation assay, MeWo cell line) was 3.92 µM and the IC50 (134 cancer cell lines; Homo sapiens, NCCIT, read-out: IC50 in cell proliferation assay, NCC-IT cell line) was 4.43 µM. The IC50 (134 cancer cell lines; Homo sapiens, NCI-H82, read-out: IC50 in cell proliferation assay, cell line NCI-H82) was 3.91 µM, the IC50 (134 cancer cell lines; Homo sapiens, NCI-H460, read-out: IC50 in cell proliferation assay, NCI-H460 cell line) was 4.69 µM and the IC50 (134 cancer cell lines; Homo sapiens, NCI-H661, read-out: IC50 in cell proliferation assay, NCI-H661 cell line) was 3.68 µM. For the same compound, the IC50 (134 cancer cell lines; Homo sapiens, NCI-H716, read-out: IC50 in cell proliferation assay, cell line NCI-H716 (FGFR2-COL14A1)) was 4.91 µM, the IC50 (134 cancer cell lines; Homo sapiens, NCI-H1650, read-out: IC50 in cell proliferation assay, NCI-H1650 cell line (EGFR exon19del)) was 0.006 µM and the IC50 (134 cancer cell lines; Homo sapiens, NCI-H1975, read-out: IC50 in cell proliferation assay, NCI-H1975 cell line (EGFR p.L858R + p.T790M)) was 0.153 µM. For the same compound, the IC50 (134 cancer cell lines; Homo sapiens, NCI-H2228, read-out: IC50 in cell proliferation assay, NCI-H2228 cell line (EML4-ALK)) was 4.89 µM, the IC50 (134 cancer cell lines; Homo sapiens, OVCAR-3, read-out: IC50 in cell proliferation assay, cell line OVCAR-3) was 0.023 µM and the IC50 (134 cancer cell lines; Homo sapiens, PFSK-1, read-out: IC50 in cell proliferation assay, cell line PFSK-1) was 4.48 µM. For the same compound, the IC50 (134 cancer cell lines; Homo sapiens, RL95-2, read-out: IC50 in cell proliferation assay, cell line RL95-2 (EGFR p.A289V)) was 0.008 µM, the IC50 (134 cancer cell lines; Homo sapiens, RPMI-7951, read-out: IC50 in cell proliferation assay, cell line RPMI-7951 (BRAF p.V600E)) was 3.97 µM and the IC50 (134 cancer cell lines; Homo sapiens, RS4-11, read-out: IC50 in cell proliferation assay, cell line RS4;11) was 3.36 µM. The IC50 (134 cancer cell lines; Homo sapiens, Rec1, read-out: IC50 in cell proliferation assay, cell line REC-1) was 0.845 µM, the IC50 (134 cancer cell lines; Homo sapiens, SHP77, read-out: IC50 in cell proliferation assay, cell line SHP-77) was 5.08 µM and the IC50 (134 cancer cell lines; Homo sapiens, SK-BR-3, read-out: IC50 in cell proliferation assay, cell line SK-BR-3 (ERBB2 amplification)) was 0.027 µM. For the same compound, the IC50 (134 cancer cell lines; Homo sapiens, SK-N-AS, read-out: IC50 in cell proliferation assay, cell line SK-N-AS) was 3.08 µM, the IC50 (134 cancer cell lines; Homo sapiens, SK-N-FI, read-out: IC50 in cell proliferation assay, cell line SK-N-FI) was 3.36 µM and the IC50 (134 cancer cell lines; Homo sapiens, SK-N-MC, read-out: IC50 in cell proliferation assay, cell line SK-N-MC) was 2.94 µM. For the same compound, the IC50 (134 cancer cell lines; Homo sapiens, SK-N-SH, read-out: IC50 in cell proliferation assay, cell line SK-N-SH (ALK p.F1174L)) was 2.47 µM, the IC50 (134 cancer cell lines; Homo sapiens, SNU-5, read-out: IC50 in cell proliferation assay, cell line SNU-5 (MET amplification)) was 3.41 µM and the IC50 (134 cancer cell lines; Homo sapiens, SNU-16, read-out: IC50 in cell proliferation assay, cell line SNU-16 (FGFR2 amplification)) was 3.88 µM. The IC50 (134 cancer cell lines; Homo sapiens, SNU-C2B, read-out: IC50 in cell proliferation assay, cell line SNU-C2B (EGFR p.R165Q)) was 5.59 µM, the IC50 (134 cancer cell lines; Homo sapiens, SU-DHL-1, read-out: IC50 in cell proliferation assay, cell line SU-DHL-1 (NPM1-ALK)) was 3.51 µM and the IC50 (134 cancer cell lines; Homo sapiens, SU-DHL-6, read-out: IC50 in cell proliferation assay, cell line SU-DHL-6) was 2.55 µM. For the same compound, the IC50 (134 cancer cell lines; Homo sapiens, SUP-T1, read-out: IC50 in cell proliferation assay, cell line SUP-T1) was 4.54 µM, the IC50 (134 cancer cell lines; Homo sapiens, SW48, read-out: IC50 in cell proliferation assay, cell line SW48 (EGFR p.G719S)) was 0.000636 µM and the IC50 (134 cancer cell lines; Homo sapiens, SW480, read-out: IC50 in cell proliferation assay, cell line SW480) was 4.83 µM. For the same compound, the IC50 (134 cancer cell lines; Homo sapiens, SW626, read-out: IC50 in cell proliferation assay, cell line SW626) was 5.24 µM, the IC50 (134 cancer cell lines; Homo sapiens, SW780, read-out: IC50 in cell proliferation assay, cell line SW780 (FGFR3-BAIAP2L1)) was 4.61 µM and the IC50 (134 cancer cell lines; Homo sapiens, SW837, read-out: IC50 in cell proliferation assay, cell line SW837) was 6.48 µM. For the same compound, the IC50 (134 cancer cell lines; Homo sapiens, SW872, read-out: IC50 in cell proliferation assay, cell line SW872 (BRAF p.V600E)) was 5.03 µM, the IC50 (134 cancer cell lines; Homo sapiens, SW900, read-out: IC50 in cell proliferation assay, cell line SW900) was 4.74 µM and the IC50 (134 cancer cell lines; Homo sapiens, SW948, read-out: IC50 in cell proliferation assay, cell line SW948) was 4.8 µM. The IC50 (134 cancer cell lines; Homo sapiens, SW982, read-out: IC50 in cell proliferation assay, cell line SW982 (BRAF p.V600E)) was 3.94 µM, the IC50 (134 cancer cell lines; Homo sapiens, SW-620, read-out: IC50 in cell proliferation assay, cell line SW620) was 5.18 µM and the IC50 (134 cancer cell lines; Homo sapiens, T98G, read-out: IC50 in cell proliferation assay, cell line T98G) was 4.59 µM. For the same compound, the IC50 (134 cancer cell lines; Homo sapiens, TCC-SUP, read-out: IC50 in cell proliferation assay, cell line TCCSUP) was 3.39 µM, the IC50 (134 cancer cell lines; Homo sapiens, THP-1, read-out: IC50 in cell proliferation assay, cell line THP-1) was 3.91 µM and the IC50 (134 cancer cell lines; Homo sapiens, U2OS, read-out: IC50 in cell proliferation assay, cell line U2OS) was 3.31 µM. The IC50 (134 cancer cell lines; Homo sapiens, U-87 MG, read-out: IC50 in cell proliferation assay, cell line U-87MG ATCC) was 4.41 µM, the IC50 (134 cancer cell lines; Homo sapiens, U-118-MG, read-out: IC50 in cell proliferation assay, cell line U-118MG) was 3.63 µM and the IC50 (134 cancer cell lines; Homo sapiens, UMUC3, read-out: IC50 in cell proliferation assay, cell line UM-UC-3) was 3.19 µM. It also gave an IC50 (134 cancer cell lines; Hs766T, read-out: IC50 in cell proliferation assay, Hs 766T cell line) of 5.01 µM, an IC50 (134 cancer cell lines; L-82, read-out: IC50 in cell proliferation assay, L-82 cell line (NPM1-ALK)) of 1.65 µM and an IC50 (134 cancer cell lines; Rh30, read-out: IC50 in cell proliferation assay, cell line Rh30) of 3.93 µM. It also gave an IC50 (134 cancer cell lines; read-out: IC50 in cell proliferation assay, 11-18 cell line (EGFR p.L858R)) of 0.002 µM, an IC50 (134 cancer cell lines; read-out: IC50 in cell proliferation assay, Hs 852.T cell line) of 3.75 µM and an IC50 (134 cancer cell lines; read-out: IC50 in cell proliferation assay, JAR cell line) of 3.05 µM. The IC50 (134 cancer cell lines; read-out: IC50 in cell proliferation assay, cell line 5637) was 0.031 µM, the IC50 (134 cancer cell lines; read-out: IC50 in cell proliferation assay, cell line A-388) was 0.019 µM and the IC50 (134 cancer cell lines; read-out: IC50 in cell proliferation assay, cell line DB) was 3.6 µM. For the same compound, the IC50 (134 cancer cell lines; read-out: IC50 in cell proliferation assay, cell line DEL (NPM1-ALK)) was 2.04 µM, the IC50 (134 cancer cell lines; read-out: IC50 in cell proliferation assay, cell line ES-2 (BRAF p.V600E)) was 2.99 µM and the IC50 (134 cancer cell lines; read-out: IC50 in cell proliferation assay, cell line PA-1) was 2.7 µM. It also gave an IC50 (134 cancer cell lines; read-out: IC50 in cell proliferation assay, cell line PC-3) of 5.26 µM, an IC50 (134 cancer cell lines; read-out: IC50 in cell proliferation assay, cell line RD) of 2.53 µM and an IC50 (134 cancer cell lines; read-out: IC50 in cell proliferation assay, cell line RKO (BRAF p.V600E)) of 3.58 µM. It also gave an IC50 (134 cancer cell lines; read-out: IC50 in cell proliferation assay, cell line RL) of 4.15 µM, an IC50 (134 cancer cell lines; read-out: IC50 in cell proliferation assay, cell line RT-4 (FGFR3-TACC3)) of 0.014 µM and an IC50 (134 cancer cell lines; read-out: IC50 in cell proliferation assay, cell line SR (NPM1-ALK)) of 3.55 µM. It also gave an IC50 (134 cancer cell lines; read-out: IC50 in cell proliferation assay, cell line T24) of 3.02 µM, an IC50 (134 cancer cell lines; read-out: IC50 in cell proliferation assay, cell line TT (RET p.C634W)) of 4.83 µM and an IC50 (134 cancer cell lines; read-out: IC50 in cell proliferation assay, cell line VA-ES-BJ) of 3.55 µM. For the same compound, the IC50 (AP-1060 (ETV6-NTRK3)) was 3.46 µM.
